Measurements as given in patent US11046647B2, “Activators of the unfolded protein response” (The Board of Trustees of the University of Illinois, priority 2018, dated 2021).

Legend:
MCF-7 and TYS-Luc = assay: Trypan Blue cell death plus or minus 2-APB, MCF-7 and TYS-Luc; type: cell-based, human
Description: ERα positive MCF-7 and TYS-Luc were treated with DMSO vehicle (Veh), or BHPI or (−)-105 plus or minus 2-APB for the indicated times. Cells death was determined using the instrument-based Trypan Blue exclusion assay. […] This is consistent with (−)-105 inducing powerful lethal activation of the anticipatory UPR pathway. (n=3±SEM).

[1] = test system: TYS-Luc and TDG-Luc cells; assay: Xenograft studies using TYS-Luc and TDG-Luc cells (BHPI); type: in vivo, mouse; settings: after 4 weeks
Excerpt: In xenograft studies using TYS-Luc and TDG-Luc cells after 4 weeks the vehicle control breast tumors had roughly quadrupled in cells.

[2] = test system: ERα positive breast cancer; assay: Mouse xenograft model of ERα positive breast cancer (BHPI); type: in vivo; settings: reasonable doses
[3] = test system: ERα Negative MCF-10A cells; assay: Trypan Blue exclusion cell death assay, MCF-10A; type: cell-based; settings: 75 nM, 24 hours
Excerpt: (§1) TRYPAN BLUE: For decades, viable cells have been measured by their ability to exclude the dye Trypan Blue. […] Dead cells, which have lost membrane integrity, take up the dye and are blue. Thus, the percentage of dead cells is the percentage of cells that are Trypan Blue positive out of the total cell population. Quantitative assessment of Trypan Blue uptake uses a cell counter from Fisher. Since the assay is instrument based, there is no observer bias in determining the percentage of Trypan Blue positive cells.
(§2) TRYPAN BLUE ASSAYS: Assays are performed on cells in 6 well plates: 300,000 cells are plated in each well of a 6-well plate in 3 ml of medium. After 24 hours, the DMSO vehicle or the indicated compound is added (in 1000th of the vol.) The cells incubated for an additional 24 hours, and then harvested in 0.25 ml of trypsin, followed after harvest by 0.75 ml of medium. The cells are spun down and resuspended in 100-200 μl of medium left that is over the cell pellet (resuspend cells by pipetting up and down a few times). Add 10 μl to 10 μl of trypan blue. Then 10 μl is inserted into the counting slide. After inserting the slide into the Fisher TC20 counting is automatic (these many cells are needed because an accurate ratio of Trypan Blue positive to Trypan Blue negative cells requires about 200 cells in the field the instrument counts).
In FIG. 28, neither the test compounds nor BHPI kill non-tumorigenic ERα Negative MCF-10A breast cells. ERα Negative MCF-10A cells were maintained for 24 hours in DMSO vehicle or 75 nM of BHPI or 75 nM of each of the indicated test compounds: 4, 6 and 105. Cell death was determined using the instrument-based Trypan Blue exclusion assay. (n=3±SEM).

[4] = test system: CaOV-3 ovarian cancer cells; assay: Automated Trypan Blue exclusion cell death assay, Caov-3; type: cell-based, human; settings: 24 hours
Description: FIG. 33. 105, but not BHPI, kills therapy-resistant ovarian CaOV-3 ovarian cancer cells. (±)-105; Cell death assay: Automated Trypan Blue exclusion. (24 hours post (±)-105)
as §1
as §2, with “After inserting the slide into the Fisher TC20 counting is automatic (these many cells are needed because an accurate ratio of Trypan Blue positive to Trypan Blue negative cells requires about 200 cells in the field the instrument counts).” left out

TYS-Luc cells = assay: Long-term cell culture experiment (treat 2 weeks, regrow 4 weeks), MTS, TYS-Luc; type: cell-based, human; settings: 1 μM for 2 weeks, then 4 weeks without drug
Description: To simulate the effect of several weeks of treatment of a tumor in a mouse xenograft, long-term cell culture experiments were performed. TYS-Luc cells (T47DERαY537S-Luc cells; ERαY537S is the most lethal ERα mutation seen in metastatic breast cancer) were plated at 4,000 cells/well in 96 well plates. […] After 2 weeks (medium change every 2 days) cell number was determined using MTS and a standard curve of absorbance versus cell number for TYS-Luc cells. Notes: (i) Bars denote the BHPI and (−)-105 arms of the experiment. No drug is present during regrow. […] This allows any surviving cells to regrow. After 4 weeks the cells were assayed using MTS. […] (Note: Visual inspection of the wells confirmed that there were no cells in the well treated for 2 weeks with active (−)-105.) To test whether the cells that regrew after BHPI treatment were resistant to BHPI they were re-treated for another cycle (BHPI Retreat) and shown to retain sensitivity to BHPI killing. (n=8 biological replicates ±SEM.

parental T47D cells = assay: MTS growth assay, parental T47D cells; type: cell-based, human; settings: 100 nM and 1 μM; 4 days
Description: (§3) ERα containing T47D human breast cancer cells able to survive in 1 μM BHPI were selected by clonal outgrowth. The effect of 100 nM and 1 μM BHPI and (−)-105 on growth of the (BHPI-sensitive) parental T47D cells and partially BHPI-resistant T47D clones 1,3,8, and 11 was evaluated. 4,000 cells/well were plated. Cell number was determined by MTS assay from a standard curve of absorbance versus cell number. […] Thus, in 4 days (−)-105 killed some, but not all, of the resistant cells.

[5] = test system: partially BHPI-resistant T47D clones 1,3,8, and 11; assay: MTS growth assay, partially BHPI-resistant T47D clones; type: cell-based, human; settings: 100 nM and 1 μM; 4 days
Description: as §3

T47D, TYS and TDG cells = assay: MTS proliferation assay (4 days), T47D, TYS and TDG; type: cell-based, human
Description: FIG. 30 compares the ability of BHPI and test compounds to inhibit proliferation of T47D, TYS and TDG cells. T47D cells were in medium containing 10 FBS (which contains estrogen), TYS-4 and TDG-1 cells were in medium containing 10% cd-FBS (estrogen depleted). Cells are plated at 2,000 cells/well in 96 well plates. After 24 hours in medium containing FBS or charcoal-dextran treated FBS (depleted of endogenous estrogens), the indicated concentration of each compound (in DMSO at 1/1000th of the volume of medium) was added. After 2 days the medium was changed, and the compounds were added again. After 2 additional days (4 days total) MTS assays are used to evaluate cell proliferation. (n=6 ±S.E.M.).

MCF-7 cells = assay: Alamar Blue/raptinal 24-hour cell death assay, MCF-7; type: cell-based, human; settings: 24-hour incubation, Alamar blue fluorescence
Description: FIG. 4. […] MCF7 (ERα) cells, 24 hour incubation, read out via Alamar Blue Fluorescence, Dead Control: Raptinal, n=3 (A, B). […] Orthotopic Mouse Xenograft breast cancers of TYS cells, Visualization by bioluminescent imaging. Treatment: 40 mg/kg daily (−)-105 for 3 days either by oral gavage or by intraperitoneal injection.
ALAMAR BLUE/RAPTINAL ASSAY: Live cells maintain a reducing environment. The non-fluorescent cell permeable ingredient of Alamar Blue® (resazurin) is taken up by cells. In living cells, it is reduced to the fluorescent compound resorufin. Using a standard curve of cell number versus fluorescence the number of live cells in a test sample can be determined. At high concentrations raptinal kills 100% of cells. The vehicle in which the test compound is dissolved is not toxic. Thus, after subtracting the blank for medium alone, the fluorescence reading for vehicle corresponds to 100% viable cells and the signal for raptinal corresponds to 0% viable cells. While this assay provides a less direct measurement of cell death than the trypan blue assay, it is more easily scaled up to large numbers of samples.
(§4) ALAMAR BLUE RAPTINAL ASSAYS: Cells were plated at 4,000-10,000 cells/well (96 well plate), usually in 50 μl of medium. After about 18 hours, an additional 50 μl of medium containing 2× the desired final concentration of the test compound (C-105) was added to each well. After 24 hours Alamar Blue reagent was added and fluorescence in the wells was read (BMG PheraStar or Molecular Devices Spectra Max M3 Microplate Reader). % relative death was determined by setting the reading for raptinal-treated cells to 100% dead cells and the reading for vehicle-treated cells to 0% dead cells.
Preparative gram-scale chiral separation of (±)-1 yields enantiopure (R)-1 and (S)-1 with opposite optical rotations (Scheme 5). […] Values were obtained after 24-hour incubation utilizing Alamar blue fluorescence assay normalized to live and death controls (vehicle and raptinal treated). (S)-1 IC50 is >1 μM. Error shown as S.E.M.

T47D cells = settings: 100, 500 and 1,000 nM; 24 hours; n=1
Description: One such change is loss of plasma membrane polarity. This is monitored using Annexin V. Dying cells also take up the dye propidium iodide. Propidium iodide (PI) fluoresces when it is intercalated into DNA. These assays monitor cells at specific stages of cell death.
FLOW CYTOMETRY (FITC) ASSAYS: Cells were seeded in 12-well plates, 75,000 cells/well, and allowed to adhere overnight. The next day, the indicated concentrations of raptinal (positive control), (−)-105, (±)-105, and (+)-105 were added and allowed to incubate at 37° C. for 24 hours (Final Volume: 1 ml, 0.1% DMSO). After incubation, cells were harvested and resuspended in 350 μl of cold Annexin binding buffer (10 mM HEPES, 140 mM NaCl, 2.5 mM CaCl2, pH 7.4) premixed with Annexin V-FITC and PI dyes. Samples were analyzed on a BD Biosciences LSRII flow cytometer, and data analysis was performed using FSC Express Version 5-6. Cell death was assessed relative to a DMSO treated control.
T47D, human breast cancer cells were plated at 75,000 cells/well. The next day, DMSO vehicle, 10 μM raptinal (control for 100% cell death), or 0, 50, 100 500 and 1,000 nM of BHPI or (±)-105, or 1,000 nM ICI/fulvestrant or 1,000 nM OHT was added. After 24 hours viable cells were determined by FACS using annexin V-FITC and propidium iodide dyes. (n=3 independent experiments ±SEM).
75,000 ERα positive T47D, human breast cancer cells, were plated/well. The next day, DMSO vehicle, 10 μM raptinal (control for 100% cell death), or 100 500 and 1,000 nM of (+)-105, or (−)-105 was added. After 24 hours viable cells were determined by FACS using annexin V-FITC and propidium iodide dyes. (n=1).

TDG cells = assay: Trypan Blue exclusion cell death assay, TDG / TDG-Luc; type: cell-based, human; settings: 24 hours; TDG-Luc
Excerpt: as §1, §2
The Trypan Blue cell death assay was used to evaluate the ability of the active enantiomer of C-105 [(−)-105] to kill ERα positive TDG-Luc cells. For all studies, 300,000 TDG-Luc cells/well in 10% FBS were plated in a 6-well plate in triplicate. 24 hours after plating, the indicated concentrations the active enantiomer of (−)-105, or BHPI (top) ICI, or OHT (Lower left) or (+)-105 (lower right) were added. After 24 hours, the cells were harvested, and the % dead cells was determined by automated Trypan Blue exclusion using the Countess II automated hemocytometer. Percentage of viable cells was calculated by doing 100-(Cell Death %). (n=3±SEM).
TDG cells were incubated for 24 hours with 75 nM of BHPI or 75 nM of each of the indicated test compounds: 4, 6 and (±)-105 (enantiomers not separated). Cell death was determined using the instrument-based Trypan Blue exclusion assay. Structures are in the Synthesis section. […] (n=3±SEM).

[6] = test system: MCF-7Y537S (MCF-7 ERαY537S-luciferase) cells; assay: Long-term cell culture experiment, MCF-7 ERαY537S-luciferase; type: cell-based, human; settings: conditions as FIG. 15 (1 μM)
[7] = test system: ERα positive and ERα negative cells; type: cell-based
Description: as §4
ERα positive MCF-7 breast cancer, Caov-3 ovarian cancer and ECC-1 uterine cancer cells and ERα negative MDA-MB-231 human breast cancer cells and HeLa, human cervical carcinoma cells and MCF-10A human mammary epithelial cells were plated at 10,000 cells/well (96 well plate) in 50 μl of medium. After about 18 hours, an additional 50 μl of medium containing 2× the desired final concentration of the test compound (C-105) was added to each well (final vol. 100 μl/well). After 24 hours Alamar Blue reagent was added and fluorescence in the wells was read after 1 hour (BMG PheraStar Microplate Reader). % relative death was determined by setting the reading for 10,000 nM raptinal-treated cells to 100% dead cells and the reading for vehicle-treated cells to 0% dead cells. (Data is the average ±SEM of 3 independent experiments with 5 biological replicates for each sample within each independent experiment.)
FIG. 3 compares the ability of (±)-105 to kill ERα positive and ERα negative cells. The dose response tests the ability of (±)-105 to rapidly kill ERα positive and ERα negative cells. […] After 24 hours Alamar Blue reagent was added and fluorescence in the wells was read. % relative death was determined by setting the reading for […] raptinal-treated cells to 100% dead cells and the reading for vehicle-treated cells to 0% dead cells. […]

NCCOB(c1ccccc1)c1ccccc1 [Compound 2-APB]
block of (−)-105-induced cell death (MCF-7 and TYS-Luc; 45 and 60 min.): partially blocked
block of (−)-105-induced cell death (MCF-7 and TYS-Luc; 30 minutes): nearly completely blocked

Cc1cccc2c1NC(=O)C2(c1ccc(O)cc1)c1ccc(O)cc1 [BHPI, reference compound]
tumor regression [1]: 97%-99.5%
tumor growth [2]: stopped tumor growth and induced rapid and substantial tumor regression
cell death of MCF-10A cells [3]: neither BHPI nor any of the test compounds induce significant death
killing of Caov-3 cells [4]: blocks growth of Caov-3 cells but does not kill them
regrowth of cells after drug removal (TYS-Luc cells): robust regrowth
effect on growth / cell number (parental T47D cells): blocked growth and killed many of the T47D cells
effect on growth / cell number [5]: inhibited growth but could not stop growth of the resistant clones
inhibition of proliferation (T47D, TYS and TDG cells): effectively inhibit proliferation
tumor growth / detectability (OVCAR-3 cells; OVCAR-3 orthotopic xenograft): strongly reduced tumor growth
tolerability in mice (OVCAR-3 cells; both xenograft studies): well tolerated

O=C1Nc2c(C(F)(F)F)cccc2C1(c1ccc(O)cc1)c1ccc(OC(F)(F)F)cc1 (single isomer, unassigned; (+)) [(+)-105, 3-(4-hydroxyphenyl)-3-(4-(trifluoromethoxy)phenyl)-7-(trifluoromethyl)indolin-2-one]
IC50 (MCF-7 cells; normalized to vehicle and raptinal, listed as (S)-1): > 1000 nM
IC50 (MCF-7 cells; Homo sapiens, MCF7, 24 h): > 1000 nM
activity of enantiomers (cell death) (T47D cells): inactive
killing of TDG-Luc cells, dose response (TDG cells): inactive and does not kill
eradication of cells in long-term experiment [6]: inactive
effect in ERα positive and ERα negative cell lines [7]: ineffective and not toxic
